Data from ChEMBL document CHEMBL3507680, “University of Dundee, Gates Library screen for HepG2 cell viability”.

Assay: Human HepG2 cell viability assay in 384 well format
Type: toxicity, cell-based
Design: dose 125 nL, time 70.5 hour; concentration not given beside the values
Settings: HepG2 cells, read-out: Inhibition

`CCc1nc(CN(C)c2nccc(N3CCCC(O)C3)n2)no1` (configuration not stated) gave a cytotoxicity at 70.5 h of -0.51%.

With `COc1ccc2c(c1)OCC(CNc1cc(N)nc(SC)n1)C2` (configuration not stated) the cytotoxicity at 70.5 h was -0.598%.

`CC(C)(C)CCN1CCCC(Cn2cc(CCO)nn2)C1` (configuration not stated) gave a cytotoxicity at 70.5 h of -9.34%.

Compound `Cn1cc(CN(CC2(O)CCNC2)C2CCCCC2)cn1` (configuration not stated) has a cytotoxicity at 70.5 h of 5.59%.

For `CN(CCCN1CCCC1)[C@@H]1c2ccccc2C2(CCNCC2)[C@H]1O`, the cytotoxicity at 70.5 h was 14.4%.

For `O=C1NCCN1CCNc1cc(-c2ccccc2)nc2ccnn12`, the cytotoxicity at 70.5 h was -2.75%.

Compound `Cc1nn(C)c(C)c1NC(=O)c1cccc(CN2CC[C@H](O)C2)c1` has a cytotoxicity at 70.5 h of -0.546%.

With `CCc1cc(N2CCC(F)(F)CC2)n2nc(C)c(C)c2n1` the cytotoxicity at 70.5 h was -7.1%.

`Cc1[nH]nc(CCC(=O)NCC2CCN(C3CCCCC3)C2)c1C` (configuration not stated) gave a cytotoxicity at 70.5 h of -4.71%.

`Cc1cc(C)n(C2CN(C(=O)CN3C(=O)CSc4ccccc43)C2)n1` showed a cytotoxicity at 70.5 h of 0.11%.

With `Cc1ccc(OCC(=O)N2CCN[C@H]3CS(=O)(=O)C[C@H]32)cn1` the cytotoxicity at 70.5 h was -16.7%.

`CS(=O)(=O)NCc1cc2n(n1)CCCN(Cc1cc3ccccc3o1)C2` gave a cytotoxicity at 70.5 h of -5.83%.

Work on `CCc1cnc(NCC(c2ccncc2)N2CCOCC2)nc1` (configuration not stated) yielded a cytotoxicity at 70.5 h of -6.68%.

For `CN(C)CCN(C)c1ccc(-c2nc(COc3ccccc3)no2)cn1`, the cytotoxicity at 70.5 h was 6.86%.

For `CCN(CC)Cc1cc(C(=O)N2CC(C)(C)[C@@](C)(O)C2)c(C)o1`, the cytotoxicity at 70.5 h was 8.35%.

`Cn1c(Cn2cccn2)nnc1C1CCN(Cc2cccnc2)CC1` gave a cytotoxicity at 70.5 h of -3.7%.

In the case of `COc1cc(C)cc(C(C(=O)O)N(C)Cc2ccon2)c1OC` (configuration not stated), the cytotoxicity at 70.5 h was -0.471%.

Compound `OC1(CN2CCCC2)CCCN(c2ncnc3[nH]cnc23)C1` (configuration not stated) has a cytotoxicity at 70.5 h of -2.89%.

`Cn1cc(C#N)cc1C(=O)N1CCC2(CCCN(CC3CCC3)C2=O)C1` (configuration not stated) showed a cytotoxicity at 70.5 h of -4.46%.

Work on `Cn1cccc1C(=O)N1CCCC(Cn2cc(CO)nn2)C1` (configuration not stated) yielded a cytotoxicity at 70.5 h of -2.41%.

`Cc1ncncc1C(=O)N1C[C@H]2CC[C@@H]1CN(C(=O)c1ccncc1)C2` showed a cytotoxicity at 70.5 h of -0.209%.

For `COCc1ncc(CN2CCC(Oc3ccccc3C)CC2)cn1`, the cytotoxicity at 70.5 h was -16.4%.

Compound `COCC(=O)NCc1cc2n(n1)CCCN(Cc1ccccc1SC)C2` has a cytotoxicity at 70.5 h of -6.55%.

Compound `OCC(O)CN1CCc2onc(-c3ccc(C(F)(F)F)cc3)c2C1` (configuration not stated) has a cytotoxicity at 70.5 h of -8.17%.

`Cc1nccc(-c2ccccc2)c1C(=O)N1CCC2(CC(=O)NC2=O)C1` (configuration not stated) showed a cytotoxicity at 70.5 h of -0.158%.

`O=C(COc1cccc(Cl)c1)N1CCOCC(O)(CN2CCCC2)C1` (configuration not stated) showed a cytotoxicity at 70.5 h of -3.79%.

Compound `CCc1cc(CN(C)C(=O)c2nnc(CN(C)C)o2)on1` has a cytotoxicity at 70.5 h of -4.97%.

In the case of `CCC[C@H]1CN(CCS(C)(=O)=O)C[C@@H]1NC(=O)c1ccn(C)n1`, the cytotoxicity at 70.5 h was -4.29%.

`CCc1ccccc1OC1CN(C(=O)c2ccsc2)C1` gave a cytotoxicity at 70.5 h of -3.52%.

In the case of `Cc1ncsc1CN1CCC2(CC1)CC(=O)N(Cc1ccc(Cl)cc1)C2`, the cytotoxicity at 70.5 h was -3.74%.

`Cc1nn(C)c2nc(N(Cc3ccncc3)CC3CCCO3)sc12` (configuration not stated) showed a cytotoxicity at 70.5 h of -5.1%.

With `Cc1nc[nH]c1-c1nccn1CCN(C)S(C)(=O)=O` the cytotoxicity at 70.5 h was 3.1%.

In the case of `O=C(CCc1cccs1)N1CCc2[nH]nc(COc3ccccc3)c2C1`, the cytotoxicity at 70.5 h was 2.22%.

In the case of `CCCS(=O)(=O)N1CCCC(CCC(=O)N(C)CCc2ccccn2)C1` (configuration not stated), the cytotoxicity at 70.5 h was -0.331%.

For `Cc1cncc(C(=O)N2CCC3(CC2)C(=O)Nc2ccccc23)c1`, the cytotoxicity at 70.5 h was -7.06%.

`CN(C)S(=O)(=O)c1ccc(CNC(=O)c2cn3c(n2)CNCC3)cc1` showed a cytotoxicity at 70.5 h of 14.9%.

With `Cn1c(CCC(=O)N2CCCC3(CC2)CNC(=O)O3)nc2cccnc21` (configuration not stated) the cytotoxicity at 70.5 h was 44%.

Work on `CN(Cc1ccccc1)c1ncccc1CNC1CCC1` yielded a cytotoxicity at 70.5 h of -2.38%.

`COCCCN(Cc1cnc(-c2cccs2)nc1)C1CCN(C)CC1` showed a cytotoxicity at 70.5 h of -12%.

`c1cncc(NCCNC2CCSCC2)c1` gave a cytotoxicity at 70.5 h of -2.74%.

Compound `CCN1C[C@@H](C(=O)O)[C@H](c2cccc(OC)c2)C1` has a cytotoxicity at 70.5 h of 5.16%.

Work on `COc1cccc(S(=O)(=O)N2CCN(C)[C@@H]3CS(=O)(=O)C[C@@H]32)c1` yielded a cytotoxicity at 70.5 h of -4.74%.

Compound `O=c1cc(-c2ccncc2)nc(-c2ccc(CN3CC[C@H](O)C3)cc2)[nH]1` has a cytotoxicity at 70.5 h of -6.15%.

For `Cc1cc(C(F)(F)F)nn1CCNC(=O)C(C)n1ccnc1C(C)C` (configuration not stated), the cytotoxicity at 70.5 h was 10.3%.

Work on `CCc1nc(N)nc(N2CCCC3(CCN(C)CC3)CC2)c1C` yielded a cytotoxicity at 70.5 h of 0.239%.

In the case of `CCc1cnc(N)nc1N(C)CCc1cnn(C)c1`, the cytotoxicity at 70.5 h was 45.7%.

With `C=C(C)COc1ccccc1C(=O)NCCCc1nnn[nH]1` the cytotoxicity at 70.5 h was -13%.

With `C=C(C)COc1ccccc1NC(=O)N1CCOCC(CO)C1` (configuration not stated) the cytotoxicity at 70.5 h was 23.5%.

Work on `CCc1ccc(C2CC(=O)Nc3cc(NS(C)(=O)=O)ccc32)o1` (configuration not stated) yielded a cytotoxicity at 70.5 h of 31.4%.

For `Cc1cc(C)n(CC2(CNC(=O)C(c3ccccc3C)N(C)C)CC2)n1` (configuration not stated), the cytotoxicity at 70.5 h was -10.8%.

For `CCc1nn(C)c(Cl)c1CN(CC)Cc1cnn(CC)c1`, the cytotoxicity at 70.5 h was -6.7%.

In the case of `CCc1nnc(CN(C)c2cc(C)nc3c(C)c(C)nn23)o1`, the cytotoxicity at 70.5 h was -2.11%.

In the case of `COc1ccc(N2CCN(C(=O)CCn3nnnc3C)CC2(C)C)cc1`, the cytotoxicity at 70.5 h was 14%.

Work on `CN(CCO)Cc1nnc(C2CCN(C(=O)C3CCOCC3)CC2)n1C` yielded a cytotoxicity at 70.5 h of 1.69%.

`CN(Cc1ccncn1)C(=O)CCC(=O)NC1CCCC1` gave a cytotoxicity at 70.5 h of -9.64%.

With `COCC(C)Nc1ccc(-c2nc(Cc3ccc(F)cc3)no2)cn1` (configuration not stated) the cytotoxicity at 70.5 h was 27.4%.

Work on `c1nc(N2CCc3nc[nH]c3C2)c2cc[nH]c2n1` yielded a cytotoxicity at 70.5 h of 2.38%.
